Results from the CheMixHub ionic liquid set.

Assay: xn = mol fraction of the nth substance listed

CCCC[n+]1ccn(C)c1.F[B-](F)(F)F + O
Settings	electrical conductivity [S/m]	viscosity [mPa·s]
288.15 K, 100 kPa, x1 = 5.584e-05	0.0319	–
288.15 K, 100.3 kPa, x1 = 0.0005439	–	1.148
288.15 K, 100.3 kPa, x1 = 0.0009901	–	1.163
288.15 K, 100.3 kPa, x1 = 0.003018	–	1.205
288.15 K, 100.3 kPa, x1 = 0.00501	–	1.247
288.15 K, 100.3 kPa, x1 = 0.006973	–	1.283
288.15 K, 100.3 kPa, x1 = 0.009052	–	1.332
288.15 K, 100.3 kPa, x1 = 0.01199	–	1.394
288.15 K, 100.3 kPa, x1 = 0.01499	–	1.46
288.15 K, 100.3 kPa, x1 = 0.017	–	1.506
293.15 K, 100 kPa, x1 = 0.0003603	–	1.03
293.15 K, 100 kPa, x1 = 0.0003729	–	1.03
293.15 K, 100 kPa, x1 = 0.0007203	–	1.062
293.15 K, 100 kPa, x1 = 0.0007257	–	1.062
293.15 K, 100 kPa, x1 = 0.00108	–	1.093
293.15 K, 100 kPa, x1 = 0.0011	–	1.093
293.15 K, 100.3 kPa, x1 = 0.0005439	–	1.012
293.15 K, 100.3 kPa, x1 = 0.0009901	–	1.024
293.15 K, 100.3 kPa, x1 = 0.003018	–	1.058
293.15 K, 100.3 kPa, x1 = 0.00501	–	1.095
293.15 K, 100.3 kPa, x1 = 0.006973	–	1.126
293.15 K, 100.3 kPa, x1 = 0.009052	–	1.168
293.15 K, 100.3 kPa, x1 = 0.01199	–	1.221
293.15 K, 100.3 kPa, x1 = 0.01499	–	1.277
293.15 K, 100.3 kPa, x1 = 0.017	–	1.315
293.15 K, 101 kPa, x2 = 0.03402	–	115.2
293.15 K, 101 kPa, x2 = 0.06153	–	102.2
293.15 K, 101 kPa, x2 = 0.1014	0.5	–
293.15 K, 101 kPa, x2 = 0.3977	–	26.7
298.15 K, 100 kPa, x1 = 3.988e-05	0.0281	–
298.15 K, 100 kPa, x1 = 0.0003603	–	0.917
298.15 K, 100 kPa, x1 = 0.0003729	–	0.917
298.15 K, 100 kPa, x1 = 0.0007203	–	0.951
298.15 K, 100 kPa, x1 = 0.0007257	–	0.951
298.15 K, 100 kPa, x1 = 0.00108	–	0.983
298.15 K, 100 kPa, x1 = 0.0011	–	0.983
298.15 K, 100 kPa, x2 = 0.9487	–	1.99
298.15 K, 100.3 kPa, x1 = 0.0005439	–	0.8998
298.15 K, 100.3 kPa, x1 = 0.0009901	–	0.9108
298.15 K, 100.3 kPa, x1 = 0.003018	–	0.9406
298.15 K, 100.3 kPa, x1 = 0.00501	–	0.9719
298.15 K, 100.3 kPa, x1 = 0.006973	–	0.9993
298.15 K, 100.3 kPa, x1 = 0.009052	–	1.036
298.15 K, 100.3 kPa, x1 = 0.01199	–	1.081
298.15 K, 100.3 kPa, x1 = 0.01499	–	1.128
298.15 K, 100.3 kPa, x1 = 0.017	–	1.162
298.15 K, 101 kPa, x2 = 0	0.194	116
298.15 K, 101 kPa, x2 = 0.06153	–	79.4
298.15 K, 101 kPa, x2 = 0.1036	0.274	81
298.15 K, 101 kPa, x2 = 0.1135	–	64.3
298.15 K, 101 kPa, x2 = 0.1877	0.374	59.5
298.15 K, 101 kPa, x2 = 0.2879	0.528	42.1
298.15 K, 101 kPa, x2 = 0.3977	–	22.3
298.15 K, 101 kPa, x2 = 0.4094	0.83	28.1
298.15 K, 101 kPa, x2 = 0.4954	1.21	20.8
298.15 K, 101 kPa, x2 = 0.5908	1.65	14.6
298.15 K, 101 kPa, x2 = 0.6979	2.42	9.5
298.15 K, 101 kPa, x2 = 0.7971	3.38	5.92
298.15 K, 101 kPa, x2 = 0.8493	4.79	–
298.15 K, 101 kPa, x2 = 0.8953	4.01	3.2
298.15 K, 101 kPa, x2 = 0.9496	4.83	–
303 K, 100 kPa, x1 = 0.6023	–	18.87
303.15 K, 100 kPa, x1 = 0.0003603	–	0.835
303.15 K, 100 kPa, x1 = 0.0003729	–	0.835
303.15 K, 100 kPa, x1 = 0.0007203	–	0.868
303.15 K, 100 kPa, x1 = 0.0007257	–	0.868
303.15 K, 100 kPa, x1 = 0.00108	–	0.904
303.15 K, 100 kPa, x1 = 0.0011	–	0.904
303.15 K, 100.3 kPa, x1 = 0.0005439	–	0.8079
303.15 K, 100.3 kPa, x1 = 0.0009901	–	0.8166
303.15 K, 100.3 kPa, x1 = 0.003018	–	0.8426
303.15 K, 100.3 kPa, x1 = 0.00501	–	0.87
303.15 K, 100.3 kPa, x1 = 0.006973	–	0.8927
303.15 K, 100.3 kPa, x1 = 0.009052	–	0.9275
303.15 K, 100.3 kPa, x1 = 0.01199	–	0.9648
303.15 K, 100.3 kPa, x1 = 0.01499	–	1.006
303.15 K, 100.3 kPa, x1 = 0.017	–	1.034
303.15 K, 101 kPa, x2 = 0	–	74
303.15 K, 101 kPa, x2 = 0.06153	–	63.1
303.15 K, 101 kPa, x2 = 0.9252	5.82	–
308 K, 100 kPa, x1 = 0.6023	–	16.04
308.15 K, 100 kPa, x1 = 3.988e-05	0.0349	–
308.15 K, 100 kPa, x1 = 5.584e-05	0.0437	–

electrical conductivity [S/m], 101 kPa, frequency 6e-05 MHz
Settings	x2 = 0.2	x2 = 0.4	x2 = 0.6	x2 = 0.8
293.2 K	0.897	1.401	2.25	3.53
298.2 K	1.026	1.613	2.61	4.1
303.2 K	1.16	1.832	2.95	4.67
